According to PMC5556071, “ATR inhibition facilitates targeting of leukemia dependence on convergent nucleotide biosynthetic pathways” (Nature Communications, 2017):
“And” between values parts separate entries of the source, which are not always exact repeats. Equal entries are not always repeated.

Test system: CEM cells
Assay: Non-targeted LC-MS metabolite profiling: percent [13C6]glucose labeling and relative metabolite levels
Format: cell-based, human
Conditions: CEM cells, 12 h following release from G1 arrest, replicates #1-#6
Description: To further investigate the functions of dCK and ATR at the G1/S transition in CEM cells, a non-targeted liquid chromatography mass spectrometry (LC-MS) assay was used to determine the utilization of labeled [^13C6]glucose and [^13C9,^15N3]deoxycytidine, the main substrates for de novo and salvage nucleotide biosynthesis, respectively. Of the 166 metabolites identified in CEM cells treated with VE-822 and/or dCKi, 105 metabolites found in all four treatment groups contained glucose-derived ^13C atoms. […] These metabolites included intermediates such as rUTP, rCTP and rCDP in the de novo dCTP biosynthesis (Fig. 1d). […] However, several deoxyribonucleotides, including dCTP, were below the limit of detection of the non-targeted LC-MS approach, raising the concern that the sensitivity of this assay is not sufficient to measure the contribution of the salvage pathway or the ratio of de novo and salvage biosynthesis to these pools. To address this problem, a newly developed targeted MS assay was developed (Fig. 1e and Supplementary Fig. 3). In this assay, samples containing either extracted dNTPs or hydrolyzed DNA from labeled cells are separated by LC for detection by a triple quadrupole mass spectrometer using multiple reaction monitoring (LC-MS/MS-MRM). The first (Q1) and third (Q3) quadrupoles function as mass filters, while the second (Q2) quadrupole serves as a collision chamber (Fig. 1e). For instance, to profile the biosynthetic composition of deoxycytidine (dC) derived from hydrolyzed DNA or dCTP, an intact, protonated dC ion is selected in Q1, followed by fragmentation of the glycosidic bond, which releases protonated cytosine in Q2, that is filtered in Q3 and detected to generate an ion chromatogram. The peak areas for the ion chromatograms of salvage [^13C9,^15N3]dC (red trace), de novo [^13C5]dC (black trace, from [^13C6]glucose) and unlabeled dC (gray trace) (Fig. 1e) are used to determine the relative contributions of the de novo and salvage routes both to dCTP pools and to DNA-incorporated dCTP.
Cells were transferred into RPMI-1640 without glucose and supplemented with 10% dialyzed FBS (Gibco) containing the following labeled substrates: precursors for de novo [U-^13C6]glucose (Sigma-Aldrich, 389374) at 11 mM; precursors for purine salvage [U-^13C10,^15N5]dA (Cambridge Isotopes, CIL 3896), [^15N5]dA (Cambridge Isotopes, NLM-3895) and [^15N5]dG (Cambridge Isotopes, NLM-3899) at 5 µM or as indicated; and precursors for pyrimidine salvage: [U-^13C9,^15N3]dC (Silantes, 124603602) and [U-^13C10,^15N2]dT (Cambridge Isotopes, CNLM-3902) at 5 µM and [^15N2]orotate (Cambridge Isotopes, NLM-1048) at indicated concentrations. The cells were incubated for 12 h or as indicated before sample collection and processing. […]
Non-targeted LC-MS metabolic assays. 1 x 10^6 cells were washed with ice-cold 150 mM ammonium acetate twice before adding 1 mL of ice-cold 80% methanol with 10 nM norvaline as an internal standard. After vigorous vortexing, samples were centrifuged at maximum speed, the aqueous layer was transferred to a glass vial and the metabolites were dried under vacuum. Metabolites were resuspended in 50 μL 70% acetonitrile (ACN) and 5 μL of this solution used for the mass spectrometer-based analysis. The analysis was performed on a Q Exactive (Thermo Scientific) in polarity-switching mode with positive voltage 4.0 kV and negative voltage 4.0 kV. The mass spectrometer was coupled to an UltiMate 3000RSLC (Thermo Scientific) UHPLC system. Mobile phase A was 5 mM ammonium acetate (NH4AcO), pH 9.9, B was acetonitrile and the separation achieved on a Luna […] NH2 100 A column (150 × 2.0 mm, Phenomenex). The flow was 200 μL/min, and the gradient ran from 15% A to 95% A in 18 min, followed by an isocratic step for 9 min and re-equilibration for 7 min. Metabolites were detected and quantified as area under the curve based on retention time and accurate mass (≤ 3 p.p.m.) using the TraceFinder 3.1 (Thermo Scientific). Relative amounts of […]

[1] = metabolite 2-HG (C02630), listed as V
[2] = metabolite 2-HIC (C03264), listed as V
[3] = metabolite 3PG (C00197), listed as V
[4] = metabolite 5-Oxoproline (C01879), listed as V
[5] = metabolite A (C00212), listed as V
[6] = metabolite ADP (C00008), listed as V
[7] = metabolite AMP (C00020), listed as V
[8] = metabolite ATP (C00002), listed as V
[9] = metabolite Ac-carnitine (C02571), listed as V
[10] = metabolite Ac-choline (C01996), listed as V
[11] = metabolite Aconitate (C00417), listed as V
[12] = metabolite Adenine (C00034), listed as V
[13] = metabolite Ala (C00041), listed as V
[14] = metabolite Allantoin (C02350), listed as V
[15] = metabolite Arg (C00062), listed as V
[16] = metabolite Arg-Succ (C03406), listed as V

SMILES: CNCc1ccc(-c2cc(-c3nc(-c4ccc(S(=O)(=O)C(C)C)cc4)cnc3N)on2)cc1 [VE-822]
- Relative level, Sarc (C00213) (listed as V): 1.3 (2×) and 1.2 and 0.569 and 0.751 and 0.6
- Relative level, Ser (C00065) (listed as V): 1.4 and 1.5 (2×) and 0.9 and 1.0 and 0.949
- Relative level, Shikimate (C00493) (listed as V): 1.3 and 1.2 and 1.5 and 1.1 and 0.8 (2×)
- Relative level, Succ (C00042) (listed as V): 1.6 (2×) and 1.3 and 1.1 and 0.5 (2×)
- Relative level, T (C00214) (listed as V): 1.1 (2×) and 1.3 (2×) and 1.2 and 1.4
- Relative level, Thr (C00188) (listed as V): 1.5 and 1.6 (2×) and 1.0 and 0.949 and 0.9
- Relative level, Thymine (C00178) (listed as V): 1.4 and 1.5 (2×) and 1.0 (2×) and 1.2
- Relative level, Trigonelline (C01004) (listed as V): 1.3 (3×) and 1.5 and 0.8 and 1.2
- Relative level, Trp (C00078) (listed as V): 1.4 and 1.5 (2×) and 0.9 (2×) and 1.0
- Relative level, Tyr (C00082) (listed as V): 1.4 and 1.6 (2×) and 0.9 (3×)
- Relative level, Tyramine (C00483) (listed as V): 1.0 and 1.1 and 1.7 and 0.8 (2×) and 0.7
- Relative level, UDP (C00015) (listed as V): 2.4 and 1.3 and 1.6 and 1.1 and 0.7 and 0.6
- Relative level, UDP-Glc (C00029) (listed as V): 2.4 and 2.0 and 2.8 and 1.5 and 1.4 and 1.7
- Relative level, UDP-GlcNAc (C00043) (listed as V): 1.2 and 1.1 and 1.4 and 0.747 and 0.8 and 0.9
- Relative level, UMP (C00105) (listed as V): 2.6 and 2.3 and 2.5 and 2.0 and 0.7 (2×)
- Relative level, UTP (C00075) (listed as V): 1.2 and 0.571 and 0.7 and 0.75 and 0.4 and 0.355
- Relative level, Uracil (C00106) (listed as V): 1.2 (2×) and 2.0 and 2.6 and 1.1 and 0.8
- Relative level, Uric Acid (C00366) (listed as V): 0.5 and 0.9 and 1.4 and 0.242 and 0.282 and 0.253
- Relative level, Urocanate (C00785) (listed as V): 0.542 and 1.3 and 1.4 and 0.452 and 0.8 and 0.7
- Relative level, Val (C00183) (listed as V): 1.1 and 1.3 (2×) and 1.5 and 0.9 (2×)
- Relative level, Vit-C (C00072) (listed as V): 5.1 and 1.4 (2×) and 2.3 and 0.5 and 0.2
- Relative level, Xanthine (C00385) (listed as V): 0.9 and 1.7 and 2.5 and 2.4 and 0.843 and 0.6
- Glucose labeling, 2-HG [1]: 9.00% and 8.24% and 8.56% and 6.59% and 3.26% and 5.24%
- Relative level, 2-HG [1]: 1.5 and 1.0 and 1.3 and 0.9 and 0.545 and 0.5
- Glucose labeling, 2-HIC [2]: -2.22e-14% and 0.00% (5×)
- Relative level, 2-HIC [2]: 1.2 (2×) and 1.5 (2×) and 0.8 and 0.9
- Glucose labeling, 2-KIC (metabolite 2-KIC (C00233)): 0.00%
- Relative level, 2-KIC (metabolite 2-KIC (C00233), listed as V): 1.1 and 1.2 and 1.3 and 0.9 (2×) and 0.8
- Glucose labeling, 2-Oxoadipate (metabolite 2-Oxoadipate (C00322)): 0.00%
- Relative level, 2-Oxoadipate (metabolite 2-Oxoadipate (C00322), listed as V): 1.3 and 1.0 (2×) and 1.4 and 1.1 and 0.759
- Glucose labeling, 2-Oxosuccinamate (metabolite 2-Oxosuccinamate (C02362)): 0.0737%
- Relative level, 2-Oxosuccinamate (metabolite 2-Oxosuccinamate (C02362), listed as V): 0.8 and 0.9 and 1.6 and 2.4 and 0.5 and 0.438
- Glucose labeling, 3PG [3]: 98.64% and 92.25% and 93.08% and 80.82% and 100.00% (2×)
- Relative level, 3PG [3]: 1.3 and 0.262 and 0.5 (2×) and 0.0899 and 0.0949
- Glucose labeling, 4-OH-PheLac (metabolite 4-OH-PheLac (C03672)): 0.00%
- Relative level, 4-OH-PheLac (metabolite 4-OH-PheLac (C03672), listed as V): 1.0 and 1.1 and 1.3 and 0.7 and 0.5 and 0.6
- Glucose labeling, 5-Oxoproline [4]: 1.06% and 0.96% and 1.16% and 0.74% (2×) and 0.98%
- Relative level, 5-Oxoproline [4]: 1.0 (2×) and 1.1 (2×) and 0.9 and 0.7
- Glucose labeling, 5M-adenosine (metabolite 5M-adenosine (C00170)): 0.00%
- Relative level, 5M-adenosine (metabolite 5M-adenosine (C00170), listed as V): 1.7 and 1.9 (2×) and 1.3 (2×) and 1.4
- Glucose labeling, A [5]: 0.0217% and 0.39% and 0.36% and 0.0233% and 0.0286% and 0.01%
- Relative level, A [5]: 1.7 and 1.1 and 1.2 and 4.1 and 1.0 and 1.8
- Glucose labeling, ADP [6]: 63.63% and 60.29% and 63.02% and 59.23% and 57.33% and 59.16%
- Relative level, ADP [6]: 2.2 and 1.0 and 1.4 and 1.2 and 0.6 (2×)
- Glucose labeling, AMP [7]: 58.98% and 57.42% and 62.07% and 26.04% and 58.67% and 50.37%
- Relative level, AMP [7]: 2.8 and 1.7 and 2.2 and 3.0 and 0.8 and 0.7
- Glucose labeling, ATP [8]: 65.50% and 64.37% and 65.03% and 64.82% and 61.07% and 61.72%
- Relative level, ATP [8]: 1.5 and 0.6 and 0.849 and 0.9 and 0.466 and 0.5
- Glucose labeling, Ac-carnitine [9]: 29.64% and 30.01% and 28.25% and 21.49% and 24.07% and 21.63%
- Relative level, Ac-carnitine [9]: 1.1 (2×) and 1.2 and 0.7 (2×) and 0.8
- Glucose labeling, Ac-choline [10]: 0.00429% and 0.00459% and 0.00523% and 0.00396% and 0.00509% and 0.00552%
- Relative level, Ac-choline [10]: 0.746 and 0.8 (3×) and 0.76 and 0.9
- Glucose labeling, Aconitate [11]: 33.62% and 26.91% and 31.71% and 21.17% and 28.64% and 25.94%
- Relative level, Aconitate [11]: 1.0 and 0.433 and 0.659 and 0.53 and 0.3 and 0.355
- Glucose labeling, Adenine [12]: 1.88e-5% and 1.21e-5% and 0.00361% and 1.25e-5% and 1.11e-5% and 0.0013%
- Relative level, Adenine [12]: 1.8 and 3.0 and 3.1 and 41.9 and 2.1 and 1.5
- Glucose labeling, Ala [13]: 57.46% and 55.60% and 53.77% and 47.90% and 47.23% and 52.00%
- Relative level, Ala [13]: 1.3 and 1.5 (2×) and 0.9 (2×) and 1.0
- Glucose labeling, Allantoin [14]: 0.00% (5×) and -2.22e-14%
- Relative level, Allantoin [14]: 1.3 (2×) and 1.7 and 1.1 and 0.7 and 1.0
- Glucose labeling, Arg [15]: 0.00452% and 0.00428% and 0.00453% and 0.00405% and 0.00437% and 0.00476%
- Relative level, Arg [15]: 1.5 and 1.7 and 1.6 and 0.9 (2×) and 1.1
- Glucose labeling, Arg-Succ [16]: 10.44% and 8.30% and 5.56% and 3.28% and 1.95% and 6.31%
- Relative level, Arg-Succ [16]: 1.4 and 1.3 and 1.5 and 0.9 and 0.6 and 0.5
- Glucose labeling, Asn (metabolite Asn (C00152), listed as V): 5.14e-5% and 2.85e-6% and 2.32e-6% and 0.000702% and 2.84e-6% and 2.39e-6%
